Experimental data taken from US9062095B2, “Mutant double cyclized receptor peptides inhibiting β1-adrenoceptor antibodies” (JULIUS-MAXIMILIANS-UNIVERSTITAT-WURZBURG, priority 2007, dated 2015).
Positions of bridges follow the written chain, without caps; N, C: chain ends.

Assays:
[1] = system: anti-β1-ECII antibodies; assay: ELISA-competition assay: peptide preincubated with sera/IgG of immunized antibody-positive rats, linear 25AA Cys/Cys-peptide as antigen; type: binding, rat; settings: for decrease in circulating free anti-beta1-ECII antibodies: n=6 sera (FIG. 11)
Outline: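 Rat sera or IgG fractions from immunized anti-β1-ECII antibody-positive rats preincubated 12 h at 4° C (rotating) with linear or cyclic β1-ECII peptides at fold molar excess (1:1 peptide:IgG assumed). Residual binding measured by ELISA on linear 25AA Cys/Cys-peptide antigen, given as % blocked versus non-blocked reactivity.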

[2] = system: beta1-receptor antibodies; assay: in vivo prevention study: five prophylactic peptide applications, serum antibody-titers by ELISA; parameters: species or system rat; settings: 1.0 mg/kg body weight i.v., 4-weekly, prevention protocol (FIG. 12)
Protocol: FIG. 12 is a diagram resuming the in vivo blocking capacity of in total five (prophylatic) applications of various linear and cyclic beta1-ECII-peptides, started 3 months after the first immunization (and two subsequent beta1-ECII/GST-antigen-boosts, corresponding to a prevention protocol). Serum-titers of the beta1-receptor antibodies were determined before and 18-20 h after each peptide injection (abscissa, time in months) and are given in % of the corresponding antibody-titers of immunized untreated rats (y-axis, ordinate). The injected peptides were: 25AA Cys/Cys linear peptide (black squares), […] (white squares), 18AA Cys/Cys cyclopeptide (black diamond), 18AA Cys/Ser cyclopeptide mutant (white diamonds), and the 18AA Cys/Ser linear peptide mutant (vertically hatched diamonds). […] Black circles indicate antibody-titers of untreated regularly (every 4 weeks) immunized animals serving as reference, set at 100%.
The in-vivo blocking effects of both 25AA and 18AA Cys/Ser mutant cyclopeptides (with a Gln closure site), the 18AA Ser/Cys mutant cyclopeptide, and a mutated linear 18AA Cys/Ser peptide were analyzed after intravenous (i.v.) injection of 1.0 mg/kg body weight (Bw) of each construct into freshly immunized antibody-positive rats (i.e., use of cyclo-peptides in a kind of “prevention” study), with a first cyclopeptide-application 3 months after the initial immunization (and two subsequent boost at months 2 and 3). In total, five prophylactic applications of the various constructs were given at 4-weekly intervals, always two weeks after the monthly continued antigen boost. Sera were drawn 18-20 hours after i.v. injection and assayed for reactivity by ELISA using the 3 Cys-containing linear 25AA Cys/Cys-peptide as an antigen (FIG. 12).

[3] = system: beta1-ECII receptor antibody-titers; assay: in vivo therapy study cyc22AA versus cyc18AA Cys/Ser in rats immunized over 8 months: antibody-titers; parameters: species or system rat; settings: injections every 4 weeks, start at month 8; mean ±SEM (FIG. 28A)
Source text: FIGS. 28A and B depict the in vivo blocking (=neutralization) capacity of two cysteine-containing 18AA or 22AA cyclopeptide-mutants of the second extracellular loop (ECII) of the human beta1-adrenergic receptor upon therapeutic injection of the different constructs into rats regularly immunized since 8 months (first=basic immunization followed by 7 antigen-boosts every 4 weeks). The effects of four to five subsequent cyclopeptide-injections every 4 weeks are shown. FIG. 28A depicts the mean values±SEM of each of the treated groups of immunized beta1-ECII-antibody positive cardiomyopathic rats (animal number per group is given in the legend). […] The remaining receptor antibody-titers after each injection in % of the antibody-titers at start therapy (month 8) are depicted (columns). Error bars indicate ±SEM. Numbers in columns indicate the number of (subsequent) monthly injection.
FIG. 28B depicts the time course of antibody-titers after 4 subsequent cyclopeptide-injections, determined before and 20-22 hours after application of the indicated constructs. Values are given in percent of increase or decrease in the respective antibody-titers after each cyclopeptide-injection compared with the antibody-titer determined at start of therapy (month 8). […]

Cyclo-Ala-Asp-Glu-Ala-Arg-Arg-Cys-Tyr-Asn-Asp-Pro-Lys-Cys-Ser-Asp-Phe-Val-Gln (cyclo(ADEARRCYNDPKCSDFVQ); disulfide 7-13; SMILES CC(C)[C@@H]1NC(=O)[C@H](Cc2ccccc2)NC(=O)[C@H](CC(=O)O)NC(=O)[C@H](CO)NC(=O)[C@@H]2CSSC[C@H](NC(=O)[C@H](CCCNC(=N)N)NC(=O)[C@H](CCCNC(=N)N)NC(=O)[C@H](C)NC(=O)[C@H](CCC(=O)O)NC(=O)[C@H](CC(=O)O)NC(=O)[C@H](C)NC(=O)[C@H](CCC(N)=O)NC1=O)C(=O)N[C@@H](Cc1ccc(O)cc1)C(=O)N[C@@H](CC(N)=O)C(=O)N[C@@H](CC(=O)O)C(=O)N1CCC[C@H]1C(=O)N[C@@H](CCCCN)C(=O)N2) [18AA Cys/Ser mutant (Gln-)cyclopeptide, disulphide bond Cys7-Cys13, ring closure Ala1-Gln18]
decrease in circulating free anti-beta1-ECII antibodies ([1]; 8-fold molar excess of peptide): 53%
decrease in circulating free anti-beta1-ECII antibodies ([1]; 20-fold molar excess of peptide): 66%
decrease in circulating free anti-beta1-ECII antibodies ([1]; 80-fold molar excess of peptide): about 85%
blocking-efficiency versus unblocked sera ([1]; n=6 sera, incubation 12-14 h, 4° C., mean ±SEM (FIG. 27)): 60.0±8.3%
fraction of rat sera blocked by the peptide ([1]; n=69 sera, (Gln-)cyclopeptide mutants (FIG. 10), Cys/Ser = blocked by it alone (n=64), Ser/Cys = sera blocked by both (n=5)): About 93%
blocking efficiency (% of blocked versus non-blocked ELISA reactivity) ([1]; type1 sera (93%, n=64 of 69), FIG. 9 upper panel, ±SEM): 68±3%
blocking capacity (% of blocked versus non-blocked ELISA reactivity) ([1]; type 2 sera (7%, n=5 of 69), FIG. 9 lower panel, ±SEM): 50±8%
antibody-titer decrease after 5 injections, compared with untreated immunized animals [2]: 54.5±2%
antibody-titer remaining after 4 injections in percent of the titer at start of therapy [3]: 76.0±23.0%
